Drawing on patent US20250248955A1, “PHENYL ACRYLIC ACID COMPOUND, AND PREPARATION METHOD AND APPLICATION THEREOF” (LONGIVITRON (SUZHOU) BIOTECHNOLOGY CO., LTD, priority 2022, published 2025), this text covers IC50 for six compounds.

The experiment addresses ACAT1 (Homo sapiens (Human), UniProt P24752). Kind of experiment: ACAT1 small molecule inhibitor screening (enzyme activity, IC50). The experiment is classed as biochemical. The following applies: summary of Table 1; unit given as mol/L. The method, then: ACAT1 can catalyze two molecules of acetyl coenzyme A to reversibly form acetoacetyl coenzyme A. Its activity was measured through the reaction between ACAT1-catalyzed substrate acetoacetyl-coenzyme A and coenzyme A, from which the product acetyl-coenzyme A is produced. Since acetoacetyl-coenzyme A is specifically absorbed in a specific spectrum, the impact on the enzyme activity of ACAT1 can be reflected through the detection of an increase or decrease of absorption in a specific spectrum.
ACAT1 recombinant proteins were expressed and purified by Escherichia coli, and the concentration of ACAT1 recombinant proteins obtained was 1 mg/mL. The buffers adopted for ACAT1 small molecule inhibitor screening were 50 mM Tris-HCl (pH 8.1), 20 mM MgCl2, and 40 mM KCl. In 200 μL of enzyme catalytic system, 1 μL of ACAT1 recombinant proteins, the substrate acetyl-coenzyme A whose final concentration was changed from 25 μM to 100 μM through a CPM probe, and small molecule inhibitors at different concentrations were added, respectively. The measurement was carried out through a microplate reader (Biotek Synergy H1) and using excitation light at 355 nm and emission light at 460 nm, and the IC50 of the inhibitors was calculated through software Prism 7.0.

ACAT1, sequence (P24752 34-427): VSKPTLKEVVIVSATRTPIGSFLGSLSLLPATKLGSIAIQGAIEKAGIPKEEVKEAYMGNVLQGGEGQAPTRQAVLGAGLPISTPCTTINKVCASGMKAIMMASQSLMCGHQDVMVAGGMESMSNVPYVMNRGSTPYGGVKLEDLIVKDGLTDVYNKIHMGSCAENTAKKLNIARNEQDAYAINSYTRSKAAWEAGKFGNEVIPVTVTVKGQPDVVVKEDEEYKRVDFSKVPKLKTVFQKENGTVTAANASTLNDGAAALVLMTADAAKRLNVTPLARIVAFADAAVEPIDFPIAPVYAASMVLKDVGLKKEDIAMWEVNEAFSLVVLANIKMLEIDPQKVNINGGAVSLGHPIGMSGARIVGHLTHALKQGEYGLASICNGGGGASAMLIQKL

In the case of `COCOc1ccc(/C=C/C(=O)Nc2ccc(OCCc3ccc(OC)cc3)cc2)cc1OCOC` [Compound M12], the IC50 is < 100 µM.

On to `COc1cc(CCOc2ccc(NC(=O)/C=C/c3ccc(O)c(O)c3)cc2)cc(OC)c1OC` [Compound M10], for which the IC50 was < 100 µM.

With `Cc1ccc(CCOc2ccc(NC(=O)/C=C/c3ccc(O)c(O)c3)cc2)cc1` [Compound M7], the IC50 is < 100 µM.

Consider `COc1ccc(CCOc2ccc(NC(=O)/C=C/c3ccc(O)c(O)c3)cc2)cc1OC` [Compound M9], for which the IC50 was < 100 µM.

`COc1ccc(CCOc2ccc(NC(=O)/C=C/c3ccc(O)c(O)c3)cc2)cc1` [Compound M5]: the IC50 is < 100 µM.

For the compound `COCOc1ccc(/C=C/C(=O)Nc2ccc(OCCc3cc(OC)c(OC)c(OC)c3)cc2)cc1OCOC` [Compound M17], the IC50 is < 100 µM.
